For assay [1], the target named is T1, Nav 1.7 (Homo sapiens (Human), UniProt Q15858). As to the kind of experiment: Nav 1.7 IWQ in vitro assay (IonWorks Quattro population patch-clamp). Particulars: 293 cells stably transfected with Nav 1.7; second part of table; read-out: Nav1.7 IWQ IC50 IP. Type of assay: cell-based. A digest of the protocol: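 HEK293 cells stably expressing Nav 1.7, recorded by automated population patch-clamp with a train of depolarizations producing increasing inactivation. Single compound concentration added during 3–8 min unclamped period, then same protocol repeated. Leak-corrected current at 26th pulse to −20 mV gave percent block (duplicate); IC50 fitted from concentration–block curves.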
T1 sequence (Q15858 whole entry): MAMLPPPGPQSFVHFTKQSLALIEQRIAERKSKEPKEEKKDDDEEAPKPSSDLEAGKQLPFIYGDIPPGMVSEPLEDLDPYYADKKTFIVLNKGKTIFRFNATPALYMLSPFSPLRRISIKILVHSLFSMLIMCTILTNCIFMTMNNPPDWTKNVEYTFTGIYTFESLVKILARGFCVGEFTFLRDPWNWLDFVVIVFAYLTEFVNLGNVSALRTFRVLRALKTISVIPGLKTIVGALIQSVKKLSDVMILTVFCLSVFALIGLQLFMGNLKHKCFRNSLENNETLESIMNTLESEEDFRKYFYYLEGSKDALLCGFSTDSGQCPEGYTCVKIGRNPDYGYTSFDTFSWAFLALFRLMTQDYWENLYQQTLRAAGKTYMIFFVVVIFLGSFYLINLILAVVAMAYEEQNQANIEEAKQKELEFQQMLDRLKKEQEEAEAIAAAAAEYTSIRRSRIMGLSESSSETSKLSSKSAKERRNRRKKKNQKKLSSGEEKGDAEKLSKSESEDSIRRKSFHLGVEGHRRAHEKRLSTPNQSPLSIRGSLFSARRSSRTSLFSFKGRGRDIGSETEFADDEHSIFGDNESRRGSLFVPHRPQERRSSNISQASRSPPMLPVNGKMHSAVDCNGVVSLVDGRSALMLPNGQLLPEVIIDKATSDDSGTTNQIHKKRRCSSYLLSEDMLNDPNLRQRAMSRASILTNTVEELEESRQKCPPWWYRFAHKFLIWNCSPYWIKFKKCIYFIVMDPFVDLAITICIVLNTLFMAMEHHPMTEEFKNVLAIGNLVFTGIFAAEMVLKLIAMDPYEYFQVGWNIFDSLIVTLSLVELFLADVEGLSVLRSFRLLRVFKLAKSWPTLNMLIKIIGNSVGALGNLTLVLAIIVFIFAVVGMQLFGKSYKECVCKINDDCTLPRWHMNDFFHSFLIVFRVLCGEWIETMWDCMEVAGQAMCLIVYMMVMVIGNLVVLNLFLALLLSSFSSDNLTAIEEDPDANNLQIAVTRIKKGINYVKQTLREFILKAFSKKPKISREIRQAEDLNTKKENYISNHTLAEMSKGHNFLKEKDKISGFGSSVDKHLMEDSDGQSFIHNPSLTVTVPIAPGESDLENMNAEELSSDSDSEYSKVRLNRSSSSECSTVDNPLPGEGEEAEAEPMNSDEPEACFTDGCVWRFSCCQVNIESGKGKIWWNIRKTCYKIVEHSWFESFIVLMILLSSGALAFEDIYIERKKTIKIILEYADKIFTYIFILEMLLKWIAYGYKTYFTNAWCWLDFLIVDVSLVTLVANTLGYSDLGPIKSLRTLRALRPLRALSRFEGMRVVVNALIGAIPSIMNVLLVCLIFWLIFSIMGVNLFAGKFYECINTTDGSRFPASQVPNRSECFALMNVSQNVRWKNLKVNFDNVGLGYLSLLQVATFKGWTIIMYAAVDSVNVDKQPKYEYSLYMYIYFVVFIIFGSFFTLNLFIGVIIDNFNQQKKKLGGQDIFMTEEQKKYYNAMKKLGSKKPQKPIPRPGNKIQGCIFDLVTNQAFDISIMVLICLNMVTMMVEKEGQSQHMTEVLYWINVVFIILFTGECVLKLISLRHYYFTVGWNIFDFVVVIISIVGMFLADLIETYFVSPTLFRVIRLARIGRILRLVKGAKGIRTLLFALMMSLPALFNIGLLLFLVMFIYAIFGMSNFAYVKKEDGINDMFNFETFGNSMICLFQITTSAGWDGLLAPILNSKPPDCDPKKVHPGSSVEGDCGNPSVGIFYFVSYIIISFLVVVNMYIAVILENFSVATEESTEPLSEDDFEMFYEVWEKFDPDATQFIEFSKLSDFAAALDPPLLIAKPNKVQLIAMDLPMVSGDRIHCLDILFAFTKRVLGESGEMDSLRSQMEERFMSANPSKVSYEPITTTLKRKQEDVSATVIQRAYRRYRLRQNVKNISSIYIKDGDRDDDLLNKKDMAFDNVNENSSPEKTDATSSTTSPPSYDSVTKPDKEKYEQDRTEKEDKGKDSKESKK
(In general: Patch clamp records ionic current or voltage across a cell membrane.)

Assay [2] has as its target T1, Nav 1.7. As to the kind of experiment: Nav 1.7 in vitro PX assay (PatchXpress whole cell voltage clamp). Type of assay: cell-based. Conditions: 293 cells, human Nav1.7, partially inactivated state; read-out: Nav1.7 PX IC50 IP. A digest of the protocol:
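HEK293 cells stably expressing human Nav1.7, whole-cell voltage clamp on PatchXpress, held at potential giving 20–50% inactivation; current elicited by 20 msec pulse to −10 mV.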

For 35 compounds, IC50 results are on record in patent US9012443B2 (Amgen Inc., priority 2011, dated 2015).

Structures are written as SMILES. pIC50: −log10 of the molar value. Some results are limits rather than exact numbers.

By pIC50 is commonly meant the IC50 on a negative log10 scale, so that one unit is a factor of ten. In the case of `N#Cc1cccc(COc2nccc3cc(S(=O)(=O)Nc4ccncn4)ccc23)c1` [Example 137, 1-((3-CYANOBENZYL)OXY)-N-(PYRIMIDIN-4-YL)ISOQUINOLINE-6-SULFONAMIDE], the negative logarithm of the IC50 (pIC50) in assay [1] was 5.41; in assay [2], under 4.52.

Turning to `O=S(=O)(Nc1nccs1)c1ccc2c(C3CCCN3C3CCOCC3)cccc2c1` (stereo not shown) [Example 102, 5-(1-(TETRAHYDRO-2H-PYRAN-4-YL)PYRROLIDIN-2-YL)-N-(THIAZOL-2-YL)NAPHTHALENE-2-SULFONAMIDE 2,2,2-TRIFLUOROACETATE], the values for the pIC50 in assay [1] and in assay [2] were 6.96 and 5.81, respectively.

For the compound `COc1ccc(C(F)(F)F)cc1-c1nccc2cc(S(=O)(=O)Nc3nccs3)ccc12` [Example 180, 1-(2-METHOXY-5-(TRIFLUOROMETHYL)PHENYL)-N-(THIAZOL-2-YL)ISOQUINOLINE-6-SULFONAMIDE], the values for the pIC50 in assay [1] and in assay [2] were 7.40 and 6.36, respectively.

Turning to `CCOc1ccccc1-c1nccc2cc(S(=O)(=O)Nc3ccncn3)ccc12` [Example 173, 1-(2-ETHOXYPHENYL)-N-(PYRIMIDIN-4-YL)ISOQUINOLINE-6-SULFONAMIDE], the pIC50 in assay [1] was 6.37; in assay [2], 5.06.

As to `COc1cc(Cl)ccc1-c1nncc2cc(S(=O)(=O)Nc3nccs3)ccc12` [Example 249, 1-(4-CHLORO-2-METHOXYPHENYL)-N-(THIAZOL-2-YL)PHTHALAZINE-6-SULFONAMIDE], the pIC50 in assay [1] is 7.52; in assay [2], 6.54.

In the case of `COc1cc(C(F)(F)F)ccc1-c1ncnc2cc(S(=O)(=O)Nc3ncc(F)s3)ccc12` [Example 263, N-(5-FLUOROTHIAZOL-2-YL)-4-(2-METHOXY-4-(TRIFLUOROMETHYL)PHENYL)QUINAZOLINE-7-SULFONAMIDE], the values for the pIC50 in assay [1] and in assay [2] were 8.00 and 6.55, respectively.

Take `O=S(=O)(Nc1ccncn1)c1ccc2c(-c3ccc(C(F)(F)F)cc3C3CCNCC3)cccc2c1` [Example 120]: the pIC50 in assay [1] is 8.00; in assay [2], 6.90.

In the case of `COc1cc(C(F)(F)F)ccc1-c1nncc2cc(S(=O)(=O)Nc3ccncn3)ccc12` [Example 254, 1-(2-METHOXY-4-(TRIFLUOROMETHYL)PHENYL)-N-(PYRIMIDIN-4-YL)PHTHALAZINE-6-SULFONAMIDE], the pIC50 was 6.59 in assay [1] and 5.28 in assay [2].

With `O=S(=O)(Nc1ncc(F)s1)c1ccc2c(-c3ccc(C(F)(F)F)cc3C3CCNCC3)cccc2c1` [Example 113], the pIC50 in assay [1] was 7.10; in assay [2], 6.93.

Turning to `COc1cc(F)c(F)cc1-c1nccc2cc(S(=O)(=O)Nc3ccncn3)ccc12` [Example 142, 1-(4,5-DIFLUORO-2-METHOXYPHENYL)-N-(PYRIMIDIN-4-YL)ISOQUINOLINE-6-SULFONAMIDE], the pIC50 is 7.22 in assay [1] and 5.75 in assay [2].

For the compound `O=S(=O)(Nc1ccncn1)c1ccc2c(OCc3cccc4[nH]ncc34)nccc2c1` [Example 136, 1-((1H-INDAZOL-4-YL)METHOXY)-N-(PYRIMIDIN-4-YL)ISOQUINOLINE-6-SULFONAMIDE], the figures for the pIC50 in assay [1] and in assay [2] were 5.44 and under 4.52, respectively.

In the case of `COc1cc(C(F)(F)F)ccc1-c1nncc2cc(S(=O)(=O)Nc3ncc(F)s3)ccc12` [Example 255, N-(5-FLUOROTHIAZOL-2-YL)-1-(2-METHOXY-4-(TRIFLUOROMETHYL)PHENYL)PHTHALAZINE-6-SULFONAMIDE], the results for the pIC50 in assay [1] and in assay [2] were 7.70 and 6.82, respectively.

Consider `O=S(=O)(Nc1nccs1)c1ccc2c(C3CCCN3Cc3ccccc3)cccc2c1` (stereo not shown) [Example 98], for which the pIC50 in assay [1] was 5.65; in assay [2], 4.89.

For the compound `COc1cc(C#N)ccc1-c1ncnc2cc(S(=O)(=O)Nc3nccs3)ccc12` [Example 269, 4-(4-CYANO-2-METHOXYPHENYL)-N-(THIAZOL-2-YL)QUINAZOLINE-7-SULFONAMIDE], the pIC50 was 7.70 in assay [1] and 6.33 in assay [2].

For the compound `COc1ccccc1-c1ncc(F)c2cc(S(=O)(=O)Nc3nccs3)ccc12` [Example 211, 4-FLUORO-1-(2-METHOXYPHENYL)-N-(THIAZOL-2-YL)ISOQUINOLINE-6-SULFONAMIDE], the figures for the pIC50 in assay [1] and in assay [2] were 8.00 and 6.60, respectively.

In the case of `COc1cc(C#N)ccc1-c1ncc(F)c2cc(S(=O)(=O)Nc3ccncn3)ccc12` [Example 218, 1-(4-cyano-2-methoxyphenyl)-4-fluoro-N-(pyrimidin-4-yl)isoquinoline-6-sulfonamide], the pIC50 in assay [1] is 7.15; in assay [2] it was 5.33.

For `COc1ccc(C(F)(F)F)cc1-c1nccc2cc(S(=O)(=O)Nc3ccncn3)ccc12` [Example 139, 1-(2-METHOXY-5-(TRIFLUOROMETHYL)PHENYL)-N-(PYRIMIDIN-4-YL)ISOQUINOLINE-6-SULFONAMIDE], the values for the pIC50 in assay [1] and in assay [2] were 8.00 and 6.38, respectively.

In the case of `COc1cc(F)ccc1-c1ncc(F)c2cc(S(=O)(=O)Nc3nccs3)ccc12` [Example 213, 4-FLUORO-1-(4-FLUORO-2-METHOXYPHENYL)-N-(THIAZOL-2-YL)ISOQUINOLINE-6-SULFONAMIDE], the figures for the pIC50 in assay [1] and in assay [2] were 8.00 and 6.44, respectively.

For `COc1cc(C(F)F)ccc1-c1ncnc2cc(S(=O)(=O)Nc3nccs3)ccc12` [Example 266, 4-(4-(DIFLUOROMETHYL)-2-METHOXYPHENYL)-N-(THIAZOL-2-YL)QUINAZOLINE-7-SULFONAMIDE], the figures for the pIC50 in assay [1] and in assay [2] were 8.00 and 6.55, respectively.

For `COc1cc(F)c(C)cc1-c1nccc2cc(S(=O)(=O)Nc3ccncn3)ccc12` [Example 154], the pIC50 is 7.40 in assay [1] and 5.66 in assay [2].

On to `O=S(=O)(Nc1ncns1)c1ccc2c(NCc3ccccc3)cccc2c1` [Example 99, 5-(benzylamino)-N-(1,2,4-thiadiazol-5-yl)naphthalene-2-sulfonamide], for which the pIC50 in assay [1] is 5.93; in assay [2], 5.35.

As to `COc1ccc(-c2nccc3cc(S(=O)(=O)Nc4ccncn4)ccc23)c(OC)n1` [Example 145, 1-(2,6-DIMETHOXYPYRIDIN-3-YL)-N-(PYRIMIDIN-4-YL)ISOQUINOLINE-6-SULFONAMIDE], the pIC50 in assay [1] was 6.04; in assay [2], 4.79.

On to `O=S(=O)(Nc1ncns1)c1ccc2c(C3CCCN3c3ccccn3)cccc2c1` (stereo not shown) [Example 96], for which the pIC50 in assay [1] was 7.10; in assay [2], 6.49.

For `COc1cc(-c2cccc(F)c2)ccc1-c1nccc2cc(S(=O)(=O)Nc3nccs3)ccc12` [Example 202, 1-(3′-FLUORO-3-METHOXY-[1,1′-BIPHENYL]-4-YL)-N-(THIAZOL-2-YL)ISOQUINOLINE-6-SULFONAMIDE 2,2,2-TRIFLUOROACETATE], the pIC50 in assay [1] is 6.47; in assay [2], 6.29.

In the case of `O=S(=O)(Nc1ccncn1)c1ccc2c(-c3ccc(C(F)(F)F)cc3Cl)nccc2c1` [Example 156, 1-(2-CHLORO-4-(TRIFLUOROMETHYL)PHENYL)-N-(PYRIMIDIN-4-YL)ISOQUINOLINE-6-SULFONAMIDE], the pIC50 in assay [1] was 6.66; in assay [2], 5.55.

In the case of `O=S(=O)(Nc1ccncn1)c1ccc2c(-c3ccc(C(F)(F)F)cc3C3=CCNC3)cccc2c1` [Example 119], the values for the pIC50 in assay [1] and in assay [2] were 7.70 and 6.75, respectively.

For `COc1cc(-c2ccccc2)ccc1-c1cccc2cc(S(=O)(=O)Nc3ccncn3)ccc12` [Example 115], the pIC50 is 6.74 in assay [1] and 6.16 in assay [2].

`O=S(=O)(Nc1ncns1)c1ccc2c(N3CCCC3c3ccccc3)nccc2c1` (stereo not shown) [Example 236, 1-(2-PHENYLPYRROLIDIN-1-YL)-N-(1,2,4-THIADIAZOL-5-YL)ISOQUINOLINE-6-SULFONAMIDE]: the pIC50 in assay [1] is 6.89; in assay [2] it was 6.37.

On to `COCc1cc(C(F)(F)F)ccc1-c1nccc2cc(S(=O)(=O)Nc3nccs3)ccc12` [Example 225, 1-(2-(METHOXYMETHYL)-4-(TRIFLUOROMETHYL)PHENYL)-N-(THIAZOL-2-YL)ISOQUINOLINE-6-SULFONAMIDE], for which the pIC50 in assay [1] was 7.52; in assay [2] it was 6.13.

`COc1ccc(OC)c(-c2nccc3cc(S(=O)(=O)Nc4ccncn4)ccc23)c1` [Example 147, 1-(2,5-DIMETHOXYPHENYL)-N-(PYRIMIDIN-4-YL)ISOQUINOLINE-6-SULFONAMIDE]: the pIC50 in assay [1] is 6.89; in assay [2], 5.24.

Take `O=S(=O)(Nc1ncns1)c1ccc2c(N3CCC[C@@H]3c3cccnc3)cccc2c1` (single isomer, unassigned) [Example 87]: the pIC50 in assay [1] was 6.34; in assay [2], 5.88.

For `COc1ccc(OC(F)(F)F)cc1-c1nccc2cc(S(=O)(=O)Nc3ccncn3)ccc12` [Example 151, 1-(2-METHOXY-5-(TRIFLUOROMETHOXY)PHENYL)-N-(PYRIMIDIN-4-YL)ISOQUINOLINE-6-SULFONAMIDE], the pIC50 in assay [1] was 7.52; in assay [2], 5.99.

On to `COCCN1CCCC1c1nccc2cc(S(=O)(=O)Nc3nccs3)ccc12` (stereo not shown) [Example 246, 1-(1-(2-METHOXYETHYL)PYRROLIDIN-2-YL)-N-(THIAZOL-2-YL)ISOQUINOLINE-6-SULFONAMIDE], for which the pIC50 was 5.67 in assay [1] and 4.56 in assay [2].

On to `COc1ncc(Cl)cc1-c1nccc2cc(S(=O)(=O)Nc3nccs3)ccc12` [Example 176, 1-(5-CHLORO-2-METHOXYPYRIDIN-3-YL)-N-(THIAZOL-2-YL)ISOQUINOLINE-6-SULFONAMIDE], for which the figures for the pIC50 in assay [1] and in assay [2] were 7.52 and 6.29, respectively.

Turning to `O=S(=O)(Nc1nccs1)c1ccc2c(C3CCCN3C3CCOCC3)nccc2c1` (stereo not shown) [Example 245, 1-(1-(TETRAHYDRO-2H-PYRAN-4-YL)PYRROLIDIN-2-YL)-N-(THIAZOL-2-YL)ISOQUINOLINE-6-SULFONAMIDE 2,2,2-TRIFLUOROACETATE], the pIC50 in assay [1] was 5.65; in assay [2] it was 4.51.
